From the supplement of paper PMC10307832

Legend:
Test in all cases: relative viability (nuclei count vs DMSO), 5 days (fraction); higher = more cells survive
IPA-3 + Alpelisib = compound: C1=CC=C2C(=C1)C=CC(=C2SSC3=C(C=CC4=CC=CC=C43)O)O [IPA-3] + Cc1nc(NC(=O)N2CCC[C@H]2C(N)=O)sc1-c1ccnc(C(C)(C)C(F)(F)F)c1 [Alpelisib] (partner 2 µM)
Outline: (§1)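 Lung cancer cell lines in 1536-well plates got either a single drug or a fixed anchor-drug dose together with five library-drug doses (not always all listed) in √10 steps, by pin tool, on the day after seeding. Nuclei were counted after 5 days, and relative viability is the treated-to-vehicle ratio of nuclei counts. Values are medians of duplicate plates.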

Doramapimod + Trametinib = compound: Cc1ccc(-n2nc(C(C)(C)C)cc2NC(=O)Nc2ccc(OCCN3CCOCC3)c3ccccc23)cc1 [Doramapimod] + CC(=O)Nc1cccc(-n2c(=O)n(C3CC3)c(=O)c3c(Nc4ccc(I)cc4F)n(C)c(=O)c(C)c32)c1 [Trametinib] (partner 0.02 µM)
Outline: as §1

Doramapimod + Lapatinib = compound: Cc1ccc(-n2nc(C(C)(C)C)cc2NC(=O)Nc2ccc(OCCN3CCOCC3)c3ccccc23)cc1 [Doramapimod] + CS(=O)(=O)CCNCc1ccc(-c2ccc3ncnc(Nc4ccc(OCc5cccc(F)c5)c(Cl)c4)c3c2)o1 [Lapatinib] (partner 2 µM)
Outline: as §1

IPA-3 + Olaparib = compound: C1=CC=C2C(=C1)C=CC(=C2SSC3=C(C=CC4=CC=CC=C43)O)O [IPA-3] + O=C(c1cc(Cc2n[nH]c(=O)c3ccccc23)ccc1F)N1CCN(C(=O)C2CC2)CC1 [Olaparib] (partner 8 µM)
Outline: as §1

| Cell Line | relative viability (IPA-3 + Alpelisib; first compound 0.2 µM) | relative viability (IPA-3 + Alpelisib; first compound 0.6325 µM) | relative viability (IPA-3 + Alpelisib; first compound 2 µM) | relative viability (IPA-3 + Alpelisib; first compound 6.325 µM) | relative viability (IPA-3 + Alpelisib; first compound 20 µM) | relative viability (Doramapimod + Trametinib; first compound 0.02 µM) | relative viability (Doramapimod + Trametinib; first compound 0.06325 µM) | relative viability (Doramapimod + Trametinib; first compound 0.2 µM) | relative viability (Doramapimod + Trametinib; first compound 0.6325 µM) | relative viability (Doramapimod + Trametinib; first compound 2 µM) | relative viability (Doramapimod + Lapatinib; first compound 0.02 µM) | relative viability (Doramapimod + Lapatinib; first compound 0.06325 µM) | relative viability (Doramapimod + Lapatinib; first compound 0.2 µM) | relative viability (Doramapimod + Lapatinib; first compound 0.6325 µM) | relative viability (Doramapimod + Lapatinib; first compound 2 µM) | relative viability (IPA-3 + Olaparib; first compound 0.2 µM) | relative viability (IPA-3 + Olaparib; first compound 0.6325 µM) | relative viability (IPA-3 + Olaparib; first compound 2 µM) | relative viability (IPA-3 + Olaparib; first compound 6.325 µM) | relative viability (IPA-3 + Olaparib; first compound 20 µM) |
| --- | --- | --- | --- | --- | --- | --- | --- | --- | --- | --- | --- | --- | --- | --- | --- | --- | --- | --- | --- | --- |
| 201T | 1.02 | 1.01 | 0.997 | 0.936 | 1.04 | 0.736 | 0.715 | 0.729 | 0.772 | 0.71 | 1.05 | 1.11 | 0.955 | 1.11 | 0.971 | 0.833 | 0.845 | 0.833 | 0.83 | 0.885 |
| A549 | 0.926 | 0.705 | 0.838 | 0.753 | 0.745 |  |  |  |  |  | 0.827 | 0.989 | 0.932 | 1.24 | 0.895 | 0.375 | 0.312 | 0.302 | 0.331 | 0.414 |
| A-427 | 1.11 | 0.993 | 1.11 | 1.08 | 1.14 | 0.763 | 0.714 | 0.79 |  | 0.619 | 1.03 | 1.17 | 1.09 |  | 1.04 | 0.73 | 0.723 | 0.697 | 0.607 | 0.662 |
| ABC-1 | 1.23 | 1.11 |  | 0.881 | 1.07 |  |  |  |  |  | 1.03 | 1.15 | 1.17 | 1.54 | 1.35 | 0.827 | 0.78 | 0.582 | 0.658 | 0.89 |
| BEN | 1.28 | 0.992 | 1.09 | 0.954 | 1.26 | 0.908 | 0.924 | 1.11 | 0.737 | 0.924 | 0.728 | 0.687 | 0.746 | 0.475 | 0.717 | 1.07 | 1.15 | 1.08 | 1.06 | 1.23 |
| CAL-12T | 1.38 | 1.14 | 1.18 | 0.999 | 1.27 | 0.333 | 0.325 | 0.342 | 0.402 | 0.297 | 0.674 | 0.557 | 0.676 | 0.611 | 0.623 | 0.749 | 0.693 | 0.72 | 0.668 | 0.678 |
| COR-L23 | 0.872 | 0.769 | 0.861 | 0.589 | 0.587 | 0.675 | 0.651 | 0.588 | 0.607 | 0.616 | 1.09 | 1.1 | 0.99 | 1.01 | 0.91 | 0.314 | 0.34 | 0.406 | 0.281 | 0.301 |
| COR-L 105 | 0.998 | 0.964 | 1.17 | 0.859 | 1.11 | 0.391 | 0.419 | 0.478 | 0.462 | 0.318 | 0.368 | 0.385 | 0.37 | 0.336 | 0.367 | 0.757 | 0.622 | 0.663 | 0.755 | 0.665 |
| Calu-6 | 1.08 | 1.01 | 1.01 | 0.928 | 0.924 |  |  |  |  |  | 1.06 | 1.13 | 1.17 | 1.19 | 0.985 | 0.629 | 0.503 | 0.617 | 0.596 | 0.426 |
| ChaGo-K-1 |  |  |  |  |  | 0.753 | 0.811 | 0.851 | 0.844 | 0.725 |  |  |  |  |  | 0.458 | 0.421 | 0.413 | 0.441 | 0.392 |
| EBC-1 | 0.992 | 0.73 | 0.821 | 0.811 | 0.475 |  |  |  |  |  | 0.255 | 0.198 | 0.17 | 0.209 | 0.197 | 0.904 | 0.668 | 0.715 | 0.607 | 0.493 |
| EKVX | 0.923 | 0.859 | 0.941 | 0.941 | 1.27 | 0.32 | 0.268 | 0.328 | 0.352 | 0.313 | 0.194 | 0.189 | 0.202 | 0.251 | 0.59 | 0.942 | 0.934 | 0.787 | 0.774 | 0.86 |
| EMC-BAC-2 | 0.813 | 0.744 | 0.785 | 0.694 | 0.822 | 0.884 | 0.816 | 0.894 | 0.873 | 0.766 | 0.918 | 0.935 | 0.871 | 1.01 | 0.715 | 0.5 | 0.468 | 0.447 | 0.459 | 0.412 |
| EPLC-272H | 0.962 | 0.947 | 0.902 | 0.968 | 1.23 | 0.25 | 0.294 | 0.302 |  | 0.291 | 0.942 | 0.983 | 0.945 | 0.979 | 0.745 | 1.16 | 0.628 | 0.797 | 0.787 | 0.887 |
| H3255 | 0.798 | 0.774 | 0.48 | 0.657 | 0.863 | 0.581 | 0.522 | 0.626 |  | 0.522 | 0.234 | 0.233 | 0.244 | 0.241 | 0.267 | 0.605 | 0.555 | 0.565 | 0.518 | 0.562 |
| HARA | 0.897 | 0.784 | 0.919 | 0.804 | 1.05 | 0.634 | 0.414 | 0.749 | 0.602 | 0.5 | 0.606 | 0.713 | 0.794 | 0.968 | 0.637 | 0.8 | 0.802 | 0.971 | 0.694 | 0.676 |
| HCC-15 | 1.01 | 0.831 | 0.73 | 0.876 | 0.928 | 0.341 | 0.306 | 0.331 | 0.293 | 0.292 | 0.864 | 0.962 | 0.84 | 0.521 | 0.752 | 0.842 | 0.699 | 0.694 | 0.741 | 0.728 |
| HCC-44 | 0.788 | 0.715 | 0.843 | 0.683 | 0.775 | 1.08 | 1.2 | 1.11 | 1.18 | 1.06 | 1.1 | 1.05 | 1.07 | 0.837 | 0.963 | 0.961 | 0.983 | 1.03 | 1.02 | 1.02 |
